Test results reported in PubChem BioAssay (NCI).
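Following 48 hours of exposure in 96-well plates, responses at five concentrations were used to interpolate endpoints linearly. Here, GI50 denotes the concentration required for 50% inhibition of growth. TGI: concentration producing complete growth inhibition.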

What was measured:
Assay in all cases: DTP human tumour cell line panel, 48 h
SK-MEL-28 melanoma = system: SK-MEL-28 melanoma
NCI-H460 lung = system: NCI-H460 lung
NCI-H23 lung = system: NCI-H23 lung
DU-145 prostate = system: DU-145 prostate
PC-3 prostate = system: PC-3 prostate
OVCAR-4 ovarian = system: OVCAR-4 ovarian
COLO 205 colon = system: COLO 205 colon
IGROV1 ovarian = system: IGROV1 ovarian
RXF 393 renal = system: RXF 393 renal
SNB-19 CNS = system: SNB-19 CNS
SN12C renal = system: SN12C renal
MDA-MB-231 breast = system: MDA-MB-231 breast
SNB-75 CNS = system: SNB-75 CNS
HOP-62 NSCLC = system: HOP-62 NSCLC
786-0 renal = system: 786-0 renal
HCT-15 colon = system: HCT-15 colon
MDA-MB-468 breast = system: MDA-MB-468 breast
HL-60(TB) leukemia = system: HL-60(TB) leukemia
NCI-H522 lung = system: NCI-H522 lung
HS 578T breast = system: HS 578T breast
EKVX NSCLC = system: EKVX NSCLC
CCRF-CEM leukemia = system: CCRF-CEM leukemia
OVCAR-3 ovarian = system: OVCAR-3 ovarian
ACHN renal = system: ACHN renal
NCI-H226 lung = system: NCI-H226 lung
NCI/ADR-RES ovarian = system: NCI/ADR-RES ovarian
BT-549 breast = system: BT-549 breast
M14 melanoma = system: M14 melanoma
RPMI-8226 leukemia = system: RPMI-8226 leukemia
SK-MEL-2 melanoma = system: SK-MEL-2 melanoma

**Q.** How did the TGI (SK-MEL-28 melanoma) turn out when `CCOP(=O)(CC(F)(F)C(F)(F)F)OCC` was run?
**A.** 3.85 µM

**Q.** What about the GI50 (NCI-H460 lung) of the same compound?
**A.** 17 µM

**Q.** What about the TGI (NCI-H460 lung) of the same compound?
**A.** 37.5 µM

**Q.** And the GI50 (NCI-H23 lung)?
**A.** 7.93 µM

**Q.** What about the TGI (NCI-H23 lung) of the same compound?
**A.** 23.9 µM

**Q.** And the GI50 (DU-145 prostate)?
**A.** 5.56 µM

**Q.** What about the TGI (DU-145 prostate) of the same compound?
**A.** 18.4 µM

**Q.** What about the GI50 (PC-3 prostate) of the same compound?
**A.** 4.6 µM

**Q.** What about the TGI (PC-3 prostate) of the same compound?
**A.** 25.6 µM

**Q.** And the GI50 (OVCAR-4 ovarian)?
**A.** 8.98 µM

**Q.** What about the TGI (OVCAR-4 ovarian) of the same compound?
**A.** 23.9 µM

**Q.** What about the GI50 (COLO 205 colon) of the same compound?
**A.** 1.84 µM

**Q.** What about the TGI (COLO 205 colon) of the same compound?
**A.** 3.43 µM

**Q.** And the GI50 (IGROV1 ovarian)?
**A.** 18.5 µM

**Q.** What about the TGI (IGROV1 ovarian) of the same compound?
**A.** 38.8 µM

**Q.** And the GI50 (RXF 393 renal)?
**A.** 1.06 µM

**Q.** What about the TGI (RXF 393 renal) of the same compound?
**A.** 2.37 µM

**Q.** What about the GI50 (SNB-19 CNS) of the same compound?
**A.** 26.2 µM

**Q.** And the TGI (SNB-19 CNS)?
**A.** > 100 µM

**Q.** What about the GI50 (SN12C renal) of the same compound?
**A.** 16.6 µM

**Q.** And the TGI (SN12C renal)?
**A.** 42.2 µM

**Q.** What about the GI50 (MDA-MB-231 breast) of the same compound?
**A.** 3.43 µM

**Q.** What about the TGI (MDA-MB-231 breast) of the same compound?
**A.** 12.3 µM

**Q.** And the GI50 (SNB-75 CNS)?
**A.** 1.95 µM

**Q.** And the TGI (SNB-75 CNS)?
**A.** 36.7 µM

**Q.** And the GI50 (HOP-62 NSCLC)?
**A.** 22.2 µM

**Q.** And the TGI (HOP-62 NSCLC)?
**A.** 54.4 µM

**Q.** And the GI50 (786-0 renal)?
**A.** 4.2 µM

**Q.** And the TGI (786-0 renal)?
**A.** 16.8 µM

**Q.** What about the GI50 (HCT-15 colon) of the same compound?
**A.** 1.56 µM

**Q.** And the TGI (HCT-15 colon)?
**A.** 3.73 µM

**Q.** What about the GI50 (MDA-MB-468 breast) of the same compound?
**A.** 1.24 µM

**Q.** What about the TGI (MDA-MB-468 breast) of the same compound?
**A.** 2.99 µM

**Q.** And the GI50 (HL-60(TB) leukemia)?
**A.** 1.71 µM

**Q.** What about the TGI (HL-60(TB) leukemia) of the same compound?
**A.** 5.89 µM

**Q.** What about the GI50 (NCI-H522 lung) of the same compound?
**A.** 0.505 µM

**Q.** And the TGI (NCI-H522 lung)?
**A.** 1.86 µM

**Q.** And the GI50 (HS 578T breast)?
**A.** 5.55 µM

**Q.** And the TGI (HS 578T breast)?
**A.** 94 µM

**Q.** And the GI50 (EKVX NSCLC)?
**A.** 3.17 µM

**Q.** And the TGI (EKVX NSCLC)?
**A.** 12.6 µM

**Q.** And the GI50 (CCRF-CEM leukemia)?
**A.** 2.9 µM

**Q.** And the TGI (CCRF-CEM leukemia)?
**A.** 15.8 µM

**Q.** And the GI50 (OVCAR-3 ovarian)?
**A.** 2.76 µM

**Q.** What about the TGI (OVCAR-3 ovarian) of the same compound?
**A.** 7.98 µM

**Q.** What about the GI50 (ACHN renal) of the same compound?
**A.** 1.86 µM

**Q.** And the TGI (ACHN renal)?
**A.** 3.55 µM

**Q.** What about the GI50 (NCI-H226 lung) of the same compound?
**A.** 16.5 µM

**Q.** What about the TGI (NCI-H226 lung) of the same compound?
**A.** 58.2 µM

**Q.** What about the GI50 (NCI/ADR-RES ovarian) of the same compound?
**A.** 2.31 µM

**Q.** And the TGI (NCI/ADR-RES ovarian)?
**A.** 5.95 µM

**Q.** What about the GI50 (BT-549 breast) of the same compound?
**A.** 4.17 µM

**Q.** And the TGI (BT-549 breast)?
**A.** 20.5 µM

**Q.** What about the GI50 (M14 melanoma) of the same compound?
**A.** 2.02 µM

**Q.** And the TGI (M14 melanoma)?
**A.** 5.31 µM

**Q.** And the GI50 (RPMI-8226 leukemia)?
**A.** 3.44 µM

**Q.** And the TGI (RPMI-8226 leukemia)?
**A.** 13.1 µM

**Q.** What about the GI50 (SK-MEL-2 melanoma) of the same compound?
**A.** 17.3 µM

**Q.** And the TGI (SK-MEL-2 melanoma)?
**A.** 39.2 µM
